pKi: −log10 of the molar value.
Legend:
[1] = molecular target: T1, Alpha-1B adrenergic receptor (Homo sapiens, UniProt P35368); assay: Inhibition of binding of [125I]HEAT to cloned human alpha-1B adrenergic receptor.
T1 sequence (P35368 whole entry): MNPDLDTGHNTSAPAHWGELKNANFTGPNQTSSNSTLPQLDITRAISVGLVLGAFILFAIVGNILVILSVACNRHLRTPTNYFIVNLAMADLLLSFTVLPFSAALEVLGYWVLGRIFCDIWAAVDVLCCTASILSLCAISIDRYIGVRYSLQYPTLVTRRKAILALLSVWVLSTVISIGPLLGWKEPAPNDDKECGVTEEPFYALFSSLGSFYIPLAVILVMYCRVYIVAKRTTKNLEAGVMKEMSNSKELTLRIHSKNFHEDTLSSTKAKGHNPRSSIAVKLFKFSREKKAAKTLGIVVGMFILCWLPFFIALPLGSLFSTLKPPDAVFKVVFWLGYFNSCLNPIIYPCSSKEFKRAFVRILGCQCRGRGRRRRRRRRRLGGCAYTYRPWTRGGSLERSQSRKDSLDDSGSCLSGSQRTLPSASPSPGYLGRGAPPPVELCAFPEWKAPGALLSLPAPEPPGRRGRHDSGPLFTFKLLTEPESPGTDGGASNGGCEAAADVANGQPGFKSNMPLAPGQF

[2] = molecular target: T2, Alpha-1A adrenergic receptor (Homo sapiens, UniProt P35348); assay: Inhibition of binding of [125I]HEAT to cloned human alpha-1A adrenergic receptor.
T2 sequence (P35348 whole entry): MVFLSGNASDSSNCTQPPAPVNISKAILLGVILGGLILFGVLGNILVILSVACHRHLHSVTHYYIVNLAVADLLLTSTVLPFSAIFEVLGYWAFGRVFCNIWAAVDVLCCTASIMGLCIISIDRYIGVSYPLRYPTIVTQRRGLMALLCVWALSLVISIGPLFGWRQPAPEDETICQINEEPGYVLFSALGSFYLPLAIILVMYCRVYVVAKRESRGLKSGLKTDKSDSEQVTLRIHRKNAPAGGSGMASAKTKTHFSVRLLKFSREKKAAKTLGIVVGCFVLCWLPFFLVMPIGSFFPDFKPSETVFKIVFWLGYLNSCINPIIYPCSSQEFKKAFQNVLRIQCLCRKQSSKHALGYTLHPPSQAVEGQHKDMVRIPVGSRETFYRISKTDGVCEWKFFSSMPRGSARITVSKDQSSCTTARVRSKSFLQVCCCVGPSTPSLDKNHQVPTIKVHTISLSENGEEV

[3] = molecular target: T3, Alpha-1D adrenergic receptor (Homo sapiens, UniProt P25100); assay: Inhibition of binding of [125I]HEAT to cloned human alpha-1D adrenergic receptor.
T3 sequence (P25100 whole entry): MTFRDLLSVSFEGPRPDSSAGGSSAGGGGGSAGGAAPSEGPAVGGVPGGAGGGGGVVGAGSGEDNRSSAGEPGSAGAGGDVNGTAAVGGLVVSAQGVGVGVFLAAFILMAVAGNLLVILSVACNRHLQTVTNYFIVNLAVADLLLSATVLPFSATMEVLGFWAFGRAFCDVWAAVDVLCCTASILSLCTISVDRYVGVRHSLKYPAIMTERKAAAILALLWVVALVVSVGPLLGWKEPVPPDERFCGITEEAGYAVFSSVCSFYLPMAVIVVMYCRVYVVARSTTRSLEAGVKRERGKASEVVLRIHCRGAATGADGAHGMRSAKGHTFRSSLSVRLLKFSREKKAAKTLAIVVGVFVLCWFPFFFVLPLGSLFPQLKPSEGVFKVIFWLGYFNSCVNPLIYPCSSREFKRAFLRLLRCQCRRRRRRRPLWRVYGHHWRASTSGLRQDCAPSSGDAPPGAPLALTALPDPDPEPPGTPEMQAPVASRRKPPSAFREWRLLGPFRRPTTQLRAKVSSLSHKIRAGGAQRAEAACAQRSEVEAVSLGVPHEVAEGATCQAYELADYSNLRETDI

Row | SMILES | pKi [1] | pKi [2] | pKi [3]
1 | COC(=O)C1(c2ccccc2)CCN(CCCNC(=O)C(c2ccc(C)cc2)c2ccc(C)cc2)CC1 | 6.35 | 8.29 | 6.02
2 | N#CC1(c2ccccc2)CCN(CCCNC(=O)C(c2ccccc2)C2CCCC2)CC1 (racemic) | 5.70 | 7.30 | 5.64
3 | Cc1ccc(C(C(=O)NCCCN2CCC(C(N)=O)(c3ccccc3)CC2)c2ccc(C)cc2)cc1 | 6.24 | 6.24 | 5.48
4 | COC(=O)C1(c2ccccc2)CCN(CCCNC(=O)Cc2ccc(C)cc2)CC1 | < 5.52 | 7.13 | 5.47
5 | Cc1ccccc1C1(C#N)CCN(CCCNC(=O)C(c2cccc(F)c2)C(C)C)CC1 (stereo not given) | 6.17 | 8.47 | 5.57
6 | Cc1ccccc1C1(C#N)CCN(CCCNC(=O)C(c2ccc(F)c(F)c2)C(C)C)CC1 (stereo in doubt; 28) | 6.05 | 8.70 | 5.80
7 | N#CC1(c2ccccc2)CCN(CCCNC(=O)C(c2ccccc2)c2ccccc2)CC1 | 6.08 | 7.55 | 5.48
8 | Cc1ccc(C(C(=O)NCCCN2CCN(c3ccccc3)CC2)c2ccc(C)cc2)cc1 | 7.64 | 7.92 | 6.89
9 | Cc1ccc(C(C(=O)NCCCN2CCC(C#N)(c3ccccn3)CC2)c2ccc(C)cc2)cc1 | < 5.70 | 7.60 | < 5.30
10 | Cc1ccc(C(C(=O)NCCCN2CCC(C#N)(c3ccccc3C)CC2)c2ccc(C)cc2)cc1 | 6.44 | 8.89 | 5.96
11 | Cc1ccc(C(C(=O)NCCCN2CCC(c3ccccn3)CC2)c2ccc(C)cc2)cc1 | 6.17 | 7.57 | 5.44
12 | Cc1ccc(C(C(=O)NCCCN2CCC(C#N)(c3ccccc3Cl)CC2)c2ccc(C)cc2)cc1 | 6.55 | 9.00 | 6.22
13 | COC(=O)C1(c2ccccc2)CCN(CCCNC(=O)C2=C(C)N=C(C)/C(=C(/O)OC)C2c2ccc([N+](=O)[O-])cc2)CC1 (racemic) |  |  | 5.96
14 | N#CC1(c2ccccc2)CCN(CCCNC(=O)C(c2ccccc2)C2CCCCC2)CC1 (racemic) | 5.96 | 7.21 | 5.60
15 | COC(=O)C1(c2ccccc2)CCN(CCCNC(=O)Cc2ccc([N+](=O)[O-])cc2)CC1 | 5.48 | 7.12 | 5.20
16 | Cc1ccccc1C1(C#N)CCN(CCCNC(=O)C(c2ccc(Cl)cc2)C(C)C)CC1 (stereo not given) | 6.06 | 8.19 | 5.89
17 | COC(=O)C1(c2ccccc2)CCN(CCCNC(=O)C(C)c2ccc([N+](=O)[O-])cc2)CC1 (stereo not given) | 5.77 | 7.33 | 5.77
18 | Cc1ccc(C(C(=O)NCCCN2CCC(C#N)(c3ccccc3)CC2)c2ccc(C)cc2)cc1 | < 5.70 | 8.14 | 5.85
19 | CC(C)C(C(=O)NCCCN1CCC(C#N)(c2ccccc2)CC1)c1ccccc1 (racemic) | 5.92 | 7.14 | 5.54
20 | Cc1ccc(C(C(=O)NCCCN2CCC(c3ccccc3)CC2)c2ccc(C)cc2)cc1 | 7.47 | 8.06 | 6.64
21 | Cc1ccccc1C1(C#N)CCN(CCCNC(=O)C(c2ccc(F)c(F)c2)C(C)C)CC1 (single isomer, unassigned; (+)) | 5.85 | 8.70 | 5.68
22 | Cc1ccc(C(C(=O)NCCCN2CCC(C#N)(c3ccccc3C(F)(F)F)CC2)c2ccc(C)cc2)cc1 | 5.72 | 7.66 | 5.49
23 | Cc1ccc(C(C(=O)NCCCN2CCN(c3ccccc3C)CC2)c2ccc(C)cc2)cc1 | 8.18 | 8.96 | 7.44
24 | Cc1ccccc1C1(C#N)CCN(CCCNC(=O)C(c2ccc(F)c(F)c2)C(C)C)CC1 (single isomer, unassigned; (-)) | 5.92 | 7.30 | 5.59
25 | COC(=O)C1(c2ccccc2)CCN(CCNC(=O)CCc2ccc([N+](=O)[O-])cc2)CC1 | < 5.52 | 6.42 | 5.82
26 | COc1ccccc1C1(C#N)CCN(CCCNC(=O)C(c2ccc(C)cc2)c2ccc(C)cc2)CC1 | 6.24 | 8.12 | 6.15
27 | Cc1ccccc1C1(C#N)CCN(CCCNC(=O)C(c2ccc(F)cc2)C(C)C)CC1 (stereo not given) | 6.02 | 7.62 | 5.62
28 | Cc1ccc(C(C(=O)NCCCN2CCC(C#N)(c3ccccc3C)CC2)C(C)C)cc1 (stereo not given) | 6.19 | 8.13 | 5.96
29 | COC(=O)C1(c2ccccc2)CCN(CCCNC(=O)CCc2ccc([N+](=O)[O-])cc2)CC1 | 6.04 | 6.62 | 5.89

From ChEMBL document CHEMBL1133241, “Phenylacetamides as selective alpha-1A adrenergic receptor antagonists” (Bioorg Med Chem Lett, 2000)
